The structures appear in SMILES notation.

From PMC10049354, “Anti-Inflammatory Effects and Photo- and Neuro-Protective Properties of BIO203, a New Amide Conjugate of Norbixin, in Development for the Treatment of Age-Related Macular Degeneration (AMD)” (International Journal of Molecular Sciences, 2023) come the findings set out here.

Data set [1] is described as follows: Acute ocular PK in rats following a single IP administration. The format is in vivo, rat. Particulars: for intraocular AUC / intraocular Cmax / time of intraocular Cmax post-administration: norbixin 10 mg/kg, BIO203 8.8 mg/kg. The method, then: The compounds were administered to 8–9 months-old Male Sprague-Dawley rats (n = 3 per group and per collection time) by the intraperitoneal route in vehicle (DMSO/NaCl/NaOH for BIO203 and PBS/Tween 80 (95/5) for norbixin) with an administration volume of 10 mL/kg. The solutions of BIO203 and norbixin were centrifuged, and the clear supernatants were administered to rats. The final injected concentrations were 10 mg/kg and 8.8 mg/kg for norbixin and BIO203, respectively. Doses administered differ because BIO201 and BIO203 solubility are not equivalent in their respective vehicles, and the dose of BIO203 was reduced to avoid toxicity of DMSO present in the vehicle, but the same volumes were injected into animals. Eyes were collected post-administration according to the following timing: 0, 0.08 h, 0.25 h, 0.5 h, 1 h, 1.5 h, 2 h, 4 h, 8 h, and 24 h. After euthanasia, the two eyes of each rat were collected in a Precellys tube, frozen, and stored at −80 °C.
Analysis was performed on an LC 1260 System coupled with Mass Spectrometer QQQ-6420 with DAD (Agilent Technologies). Norbixin and BIO203 were eluted from a reverse-phase column (2.1 × 50 mm; 3 μm particles; Ace Excel C18) with the following gradient of acetonitrile in water (both containing 0.1% formic acid): 55 to 100% in 5 min), (flowrate: 0.3 mL/min). […] were monitored by a mass spectrometer, in positive MRM mode, with the following transitions, respectively, 381.1 -> 144.9 and 478.1 -> 362.9. For quantification of BIO201 and BIO203, calibration curves were prepared under the same conditions as the sample matrix, with various amounts of BIO201 or BIO203 (25 to 10,000 ng/mL in plasma and 5 to 500 ng/mL for eyes).
For determination of concentrations of BIO201 or BIO203 in ocular tissues, each eye was homogenized in CHCl3/MeOH (1:1, v/v) (0.5 mL) with a homogenizer (Precellys-24) during 2 cycles (30 s) at 6500 rpm. The internal standard (retinoic acid at 10 µg/mL) was added, and the organic layer was extracted. The homogenate was then extracted two times with CHCl3/CH2Cl2 (0.5 mL). The combined organic extracts were dried in vacuo without heating (EZ2, Genevac Ltd., Ipswich, UK). Then they were dissolved in 100 μL DMSO/MeOH (1:1, v/v) and transferred to microtiter plates for LC-MS/MS analysis.

Data set [2] can be described thus: Powder stability at RT, 4 °C and −20 °C for up to 18 months (LC-MS/MS). Conditions: for loss of the compound: 4 °C. The format is physicochemical. The procedure: The potential breakdown of BIO203 compared to BIO201 was assessed every three months in samples stored for up to 18 months at room temperature, 4 °C, and −20 °C. On the day of analysis, weighted samples of BIO203 and norbixin powder were solubilized in DMSO at 10 mg/mL final concentration. DMSO solutions were further diluted 400-fold before performing LC-MS/MS analysis which was performed on an LC 1260 System coupled with Mass Spectrometer QQQ-6420 with DAD (Supplier Agilent Technologies). BIO201 and BIO203 were eluted from a reverse-phase column (2.1 mm × 50 mm; 5 μm particles; Fortis C18) with the following gradient of acetonitrile in water (both containing 0.1% formic acid): 10 to 100% in 10 min), (flow-rate: 0.3 mL/min), (UV detection A: 460 nm, B: 254 nm, DAD: 210–500 nm), (MS scan+: 50 to 800 Frag 120 CAV 5, MS scan-: 50 to 800 Frag 120 CAV 5). The AUC value was used to determine the stability of each compound.

Data set [3] concerns Abca4−/− Rdh8−/− mice. As to the kind of experiment: Photoreceptor nuclear layer thickness after 6 months of oral complementation in Abca4−/− Rdh8−/− mice. The format is in vivo, mouse. Particulars: HD pellets, 17-month-old mice. The procedure:
At the end of the measurement period on Day 7, rats were euthanized by an intraperitoneal injection of pentobarbital. Immediately after euthanasia, both eyeballs were sampled, fixed in Davidson’s solution, and processed for histology. Sections (5 to 7 µm thick) were performed along the vertical meridian and stained with Haematoxylin/Eosin stain. The vertical meridian included the optic nerve. […] The thickness of the outer nuclear layer was measured on each point. […] Histology and photoreceptor counting in mice were performed as previously described.
A custom rodent diet was formulated and irradiated (25 kGy) by Envigo RMS SARL (Gannat, France). Low dose (LD)-BIO203 (50 μg/g) and high dose (HD)-BIO203 (500 μg/g) were incorporated into Teklad Custom Research Diet 2016© pellets. […] The concentration of BIO203 in the customized pellets at the end of each batch was determined by HPLC MS/MS. […] We calculated that in the LD group, male mice weighing 31.63 g after 2 months of complementation consumed 4.16 g of pellets, and in the HD group, male mice weighing 34.11 g after 2 months of complementation consumed 4.11 g of pellets every day, which correspond to a daily dose of 6.04 ± 0.46 mg/kg for the LD-BIO203 pellets and 55.91 ± 2.93 mg/kg for the HD-BIO203 pellets. […]

In the case of `COC1CCCN(C(=O)/C=C/C(C)=C/C=C/C(C)=C/C=C/C=C(C)/C=C/C=C(C)\C=C\C(=O)O)C1` (centres unmarked) [BIO203], in data set [1] (discussion summary), the “ocular AUC increase compared to BIO201” value is listed as more than 200 fold and the “ocular Cmax increase compared to BIO201” value is listed as “more than 10 fold”. Further, in data set [1] (male, Sprague-Dawley, 8.8 mg/kg, rat eye, single IP, 24 h, read-out: remaining intraocular concentration at 24 h), the concentration at 24 h is approximately 2 ng/mL. In data set [1] (rat eye, single IP), the “intraocular AUC of BIO203 relative to norbixin” value is “approximately 280 times”, the “intraocular AUC” value was 704.1 ng·h/eye, the “intraocular Cmax” value came to 133.1 ng/eye and the “time of intraocular Cmax post-administration” value is given as 1 h. For the same molecule, the stability result in data set [2] (RT, +4 °C and −20 °C, 18 months) is listed as “stable at all temperatures tested for at least 18 months”. Further, in data set [3], the “thickness of the photoreceptor nuclear layer compared with LD or control pellets” value is “No difference”.

Take `CC(=C/C=C/C(C)=C/C=C/C=C(C)/C=C/C=C(C)/C=C/C(=O)O)/C=C/C(=O)O` [norbixin, 9′-cis-norbixin]: in data set [1] (rat eye, single IP, 24 h), the “remaining intraocular concentration at 24 h” value was “no longer detectable”. For the same molecule, the “intraocular AUC” value in data set [1] (rat eye, single IP) is 2.5 ng·h/eye. The “intraocular Cmax” value in data set [1] (rat eye, single IP) was “less than 8.5 ng/eye”. In addition, the “time of intraocular Cmax post-administration” value in data set [1] (rat eye, single IP) is given as 0.25 h. For the same molecule, the “loss of the compound” value is 10% in data set [2] (3 months), −20.8% in data set [2] (6 months) and −66.4% in data set [2] (12 months). Also, the “left of the initial quantity” value turned out to be 41% in data set [2] (RT, 3 months); 22.1% in data set [2] (RT, stabilized between 12 and 18 months). Moreover, the loss of compound in data set [2] (−20 °C, after one year) is reported as −18.1%. The stability entry in data set [2] (−20 °C, up to 6 months) is on record as “appeared stable”.
